Laboratory results as given in patent publication US9856511B2, “Protease deubiquitinating inhibitor screening” (priority 2011, dated 2018).

Assays:
HCT116 cells = type: cell-based; details: human
Excerpt: These findings indicate that high molecular weight ubiquitin substrate complexes accumulating as a result of DUB inhibition can generate strong cytotoxicity that is insensitive to Bcl-2 over-expression. [table]

[1] = test system: isogenic clones of HCT116 colon cancer cells; test: Apoptosis in isogenic HCT116 clones, caspase cleaved cytokeratin-18 ELISA; type: cell-based
Protocol: The increase in sub G1 DNA content is associated with (i) activation of the apoptosis mediator caspase-3 and (ii) with cleavage of the caspase substrates poly-ADP ribose polymerase (PARP) and cytokeratin-18. […] Apoptosis induction by bortezomib is dependent on p53 and inhibited by overexpression of the Bcl-2 protein (16,17).
For determination of apoptosis parental HCT-116 p53+/+ cells were treated with the increasing doses of bortezomib or b-AP15 for 24 h. […] HCT-116 cells were seeded in 96-well microtiter plates at 10,000 cells per well and incubated overnight. Cells were treated with indicated drug for 24 h. At the end of the incubation period, NP40 was added to the tissue culture medium to 0.1% and 25 μl of the content of each well was assayed using the M30-Apoptosense® ELISA as previously described (43). Cell viability was determined by measuring acid phosphatase activity or using the FMCA method (44). For the acid phosphatase activity cells were seeded at 5000 cells per well in 96-well culture plates and incubated for 12 h at 37° C. Compounds were added to the cells in growth media and incubated for 72 h at 37° C. Cells were washed with 200 μl warm PBS. […] Absorbance was measured at 405 nm.
b-AP15 inhibits degradation of ubiquitin-tagged YFP in a proteasome reporter cell line (FIG. 1a). Levels of ^UbG76V-YFP accumulation were determined by flow cytometry and immunoblotting; immunoblot of ubiquitin conjugation in HCT-116 cells treated with b-AP15 (1 μM) or bortezomib (100 nM) (FIG. 1b). […] Immunoblot of ODC-1 levels in HCT-116 cells following treatment with bortezomib ([…] or b-Ap15 (1 μM) (FIG. 1d); values represent quantified optical density units of ODC-1 normalized to β-actin. Cell cycle profiles of b-AP15 treated HCT-116 cells (FIG. 1e); cells were analyzed by propidium iodide staining and flow cytometry. Levels of caspase activity in isogenic HCT-116 cells as determined by ELISA for caspase cleaved cytokeratin-18 (CK18-Asp398) following treatment with bortezomib (100 nM) or b-AP15 (1 μM) (**′P=0.01, ***′P=0.001) (FIG. 1f). […]

CC(C)C[C@H](NC(=O)[C@H](Cc1ccccc1)NC(=O)c1cnccn1)B(O)O [bortezomib]
Fold induction DNAJB1 (Hsp40B1) mRNA (HCT116 cells): 5 fold
Fold induction HSPA1B mRNA (HCT116 cells): 12 fold
Fold induction HSPA6 (Hsp70B′) mRNA (HCT116 cells): 60 fold
apoptosis: effect of genetic disruption of BAX or PUMA [1]: bortezomib-induced apoptosis is inhibited
